# Data published in patent US20250186421A1, “METHODS OF TREATING INFLAMMATORY AND/OR ALLERGIC DISORDERS WITH NORKETOTIFEN” (Bridge Pharma, Inc., priority 2025, published 2025).
# Read-outs that look alike come from different tables or passages of the source. Marks after values point to notes of the source that are not given here.
# Experiments:
# [1] = dog, in vivo
# Method: In the Phase 2 study described herein, doses of 4 mg (maintenance) and 8 mg (loading) were used, with very good effects and with no toxicity. The margin of safety (MOS) was calculated by dividing animal: human doses in mg/kg, or dividing animal systemic exposure (AUC) at no adverse effect level (NOAEL) (a 28-day dog study), with human systemic exposure AUC (from human Phase 1 study), or by dividing animal: to human dose expressed in m2 (body surface area—BSA), or by calculating HED (human equivalent dose).
# [2] = Fed and fasted oral administration of norketotifen to dogs (food effect PK); type: in vivo; settings: 4 mg/kg oral; for AUC(0-inf) / Cmax: dog, plasma, po, 4 mg/kg
# Method: Norketotifen was administered to dogs with and without food. For fed animals, canned food (one can (374 g) of Lamb Ground Dinner with Chicken & Rice per dog was weighed then offered for a period of 30 min prior to dosing at 4 mg/kg. After dosing, dry food (25% protein) was offered. For fasted animals, dogs were fasted overnight and until 4 h post dose and then offered dry food. The results are given in Table 2.
# [3] = PK parameters in plasma and skin of dogs after 28 days of oral dosing; type: in vivo; settings: for AUC(0-inf): N=5; for MRT / half-life: dog, po
# From the text: However, for the treatment of the dermal and pulmonary disorders described herein for treatment efficacy, the dermal/pulmonary exposure are more important than systemic exposure, that is, efficacy depends on the skin/pulmonary AUC/Cmax, which are considered to be sites of action for these conditions. The pharmacokinetic parameters in skin and plasma after oral dosing of norketotifen to dogs (N=5) are shown below.
# [4] = tested on: atopic dermatitis; assay: Phase 2a study of oral norketotifen in atopic dermatitis; type: in vivo, human
# Method: The efficacy and safety of norketotifen orally administered to human subjects over a 28 day period were determined in a Phase 2 study. Norketotifen efficacy was compared to the clinical data in the prescribing information for Eucrisa® by dermal application; and compared to the clinical data in the prescribing information (product monograph) for Dupixent® by subcutaneous administration. In the Phase 2a study, 8 subjects were administered Placebo and 16 subjects were administered norketotifen. Oral norketotifen was administered at 4 mg BID (twice per day) for 4 days, followed by 4 mg QD (once per day). The duration of the study was 4 weeks. The parameters determined were: IGA score, Investigator's Global Assessment scale. The scale is as follows: • 0=clear—No inflammatory signs of atopic dermatitis (no erythema, no induration/papulation, no lichenification, no oozing/crusting). Post-inflammatory hyperpigmentation and/or hypopigmentation may be present. • 1=almost clear—Barely perceptible erythema, barely perceptible induration/papulation, and/or minimal lichenification. No oozing or crusting. • 2=mild—Slight but definite erythema (pink), slight but definite induration/papulation, and/or slight but definite lichenification. No oozing or crusting. • 3=moderate—Clearly perceptible erythema (dull red), clearly perceptible induration/papulation, and/or clearly perceptible lichenification. Oozing and crusting may be present. • 4=severe—Marked erythema (deep or bright red), marked induration/papulation, and/or marked lichenification. Disease is widespread in extent. Oozing or crusting may be present. In the IGA assessment, a responder was identified as a subject with IGA 0 or 1 (clear or almost clear) after treatment. A partial responder was defined as having an IGA score>1, but less than the initial score recorded on Day 1. A non-responder is a subject in which the initial IGA score was identical to the IGA score at the end of treatment (i.e. no change in score numbers). […] In Table 4, the results for norketotifen were compared to the results from the Dupixent® prescribing information.
# [5] = Accumulation of norketotifen in skin after oral administration; type: in vivo; settings: read-out: Terminal half-life (t1/2e)
# From the text: As used herein, the term biophase refers to the site(s) where a drug expresses its therapeutic activity. […] Thus, norketotifen can advantageously be used to treat dermal inflammatory and/or allergic diseases.
# [6] = Distribution of norketotifen to the lungs after oral administration; type: in vivo; settings: lung / plasma, read-out: Lung concentration relative to plasma concentration
# From the text: Norketotifen, after oral administration, is rapidly absorbed and is also preferentially distributed to the lungs, where the concentration of RS-norketotifen can reach concentrations that may be 100 times higher than the plasma concentration.
# [7] = Phase 1 study, 8 mg/day for 7 days, plasma steady-state; type: in vivo, human; settings: 8 mg/day for 7 days Phase 1 study
# [8] = Incidence of vomiting in dogs administered norketotifen as a function of Cmax and AUC; type: in vivo; settings: FIGS. 1 and 2
# [9] = tested on: atopic dermatitis; settings: 16 weeks, 224 subjects, cited from earlier work
# [10] = Fast (fasted overnight until 4 h post dose)
# [11] = oral 4 mg BID for 4 days, then 4 mg QD for 24 days, 4 weeks, 16 subjects
compound,measurement,setting,value
O=C1Cc2ccccc2C(=C2CCNCC2)c2ccsc21 (racemic) [norketotifen],"Margin of safety (animal: human), Systemic exposure (AUC0-inf.)",[1]; 2 mg,127-fold
same,"Margin of safety (animal: human), Systemic exposure (AUC0-inf.)",[1]; 4 mg,72-fold
same,"Margin of safety (animal: human), Systemic exposure (AUC0-inf.)",[1]; 16 mg,19-fold
same,"Margin of safety (animal: human), Systemic exposure (AUC0-inf.)",[1]; 32 mg,6-fold
same,"Margin of safety (animal: human), Systemic exposure (AUC0-inf.)",[1]; 64 mg,3-fold
same,"% difference in AUC0-∞, fed vs fasted (reduction in fed animals)",[2],26%
same,AUC(0-inf),[2]; [10],522 ng·h/mL
same,Cmax,[2]; [10],93 ng/mL
same,AUC(0-inf),[2]; Fed,390 ng·h/mL
same,Cmax,[2]; Fed,58 ng/mL
same,AUC(0-inf),"[3]; dog plasma, after 28 days of oral dosing",4520 ng·h/mL
same,AUC(0-inf),"[3]; dog skin, after 28 days of oral dosing",46100 ng·h/mL
same,MRT,"[3]; plasma, dog plasma, after 28 days of oral dosing, read-out: MRT (mean residence time)",17.5 h
same,half-life,"[3]; plasma, dog plasma, after 28 days of oral dosing, read-out: t ½(e) (converted)",38.3 h
same,MRT,"[3]; skin, dog skin, Phase 2 = 14 day post dosing period, read-out: MRT (phase 2)",159 h
same,half-life,"[3]; skin, dog skin, Phase 2 = 14 day post dosing period, read-out: t ½(e) (phase 2) (converted)",160 h
same,MRT,"[3]; skin, dog skin, after 28 days of oral dosing, read-out: MRT (mean residence time)",86.5 h
same,half-life,"[3]; skin, dog skin, after 28 days of oral dosing, read-out: t ½(e) (converted)",25.4 h
same,Safety/tolerability in the safety population,"[4]; 28 days oral treatment, adverse event in only one patient, resolved completely","well-tolerated, with no reported instances of serious adverse events or treatment-related adverse events"
same,Toxicity at Phase 2 doses,[4]; doses of 4 mg (maintenance) and 8 mg (loading),no toxicity
same,Nausea or vomiting when dosed on a full stomach,"[4]; human subjects, with food, up to a dose of 16 mg",no nausea or vomiting was noted
same,% reduction of affected BSA (Baseline to Day 29),"[4]; oral 4 mg BID for 4 days, then 4 mg QD for 24 days",−63.3%^
same,"IGA scores >1, but less than the initial scores on Day 1 (partial responders)",[4]; [11],50%
same,Non responders at all,[4]; [11],6.1%
same,"IGA scores ≤1, percent responders","[4]; oral 4 mg BID for 4 days, then 4 mg QD for 24 days, 4 weeks, 16 subjects, p = 0.0095 / 0.0031 vs Placebo (Fisher's exact test)",43.89% ^b
same,"Pruritus, score 0, percentage improvement for NK group","[4]; pruritus severity scale 0-3, 4 weeks, p = 0.016 vs Placebo",62.5%^c
same,half-life,[5],144 to 168 h
same,Kp,[6],~100
same,Time to plasma steady-state,[7],≤ 4 days
same,Incidence of vomiting vs systemic Cmax and AUC,[8],incidence of vomiting increases as both systemic Cmax and AUC increase
"Dupilumab: recombinant human IgG4 monoclonal antibody binding IL-4Rα, inhibits IL-4 and IL-13 signaling; subcutaneous injection","IGA scores ≤1, percent responders",[9]; 300 mg Q2W subcutaneous,37.9%
same,"NRS ≥4 score improvement, percentage response for dupilumab group","[9]; pruritus NRS 0-10, 300 mg Q2W",40.8%
